According to patent publication US7595395B2, “Gabaergic agents to treat memory deficits” (priority 2005, dated 2009):

Tested on: C57B1/6 mice
Assay: Pavlovian fear conditioning, contextual memory, scopolamine impairment
Type: in vivo
Details: for fear conditioned contextual memory, impairment by scopolamine (in words): 10 mg/kg compound, 1 mg/kg scopolamine, mouse; for reversal of scopolamine induced memory deficits (in words): mice, dose not stated
Protocol: Because the hippocampus is involved in the regulation of events underlying learning and memory, α5 subtype selective agents were evaluated for their ability to modulate hippocampal-dependent and hippocampal-independent forms of memory using Pavlovian fear conditioning paradigms with mice or rats. The protocols for these studies were reported in references Bailey, D. J., Tetzlaff, J. E., Cook, J. M., He, X. H. and Helmstetter, F. J., “Effects of Hippocampal Injections of A Novel Ligand Selective for the Alpha 5 Beta 2 Gamma 2 Subunits of the GABA/Benzodiazepine Receptor on Pavlovian Conditioning,” Neurobiol. Learn. Mem., 78, 1-10 (2002); Delorey, T. M., Lin, R. C., Mcbrady, B., He, X. H., Cook, J. M., Lameh, J. and Loew, G. H., “Influence of Benzodiazepine Binding Site Ligands on Fear-Conditioned Contextual Memory,” Eur. J. Pharmacol., 426, 45-54 (2001).
Further, animal data for FIGS. 22-26 were obtained using experimental methodologies described in a previously published reference, Influence of benzodiazepine binding site ligands on fear-conditioned contextual memory European journal of Pharmacology, Volume 426, Issues 1-2, 24 Aug. 2001, Pages 45-54, Timothy M. DeLorey, Richard C. Lin, Brian McBrady, Xiaohui He, James M. Cook, Jelveh Lameh and Gilda H. Loew, which is incorporated by reference as if fully set forth here in its entirety. Selected sections of the reference are provided below:
Male C57B1/6 mice were obtained from Charles Rivers Laboratories (Holister, Calif.) at 6 weeks of age. Mice used in fear conditioning were between 7 and 12 weeks of age. Animals were housed eight to a cage in rooms with a normal 12-h light/12-h dark cycle (lights on 700-1900 h) with free access to food and water. Tests were conducted during the light phase between 1300 and 1700 h with a 20-min acclimation period in the testing room prior to drug or vehicle administration. All animal protocols used in this study conform to the guidelines determined by the National Institute of Health (USA) Office for Protection from Research Risks and are approved by the Animal Care and Use Committee of the Palo Alto Veterans Administration Medical Center, Palo, Alto, Calif. (USA).
Before testing each day, the mice were moved to a holding room and allowed to acclimate for at least 30 min. Each mouse received an i.p. injection of one of the following: vehicle, benzodiazepine binding site ligand (2-30 mg/kg), scopolamine (1 mg/kg), methylscopolamine (1 mg/kg) or scopolamine (1 mg/kg) combined with one of the benzodiazepine binding site ligands (2-30 mg/kg). The dose level chosen for each compound was one that neither elicited convulsions nor impaired locomotion. Twenty minutes after injection, the mice were placed individually in one of four identical experimental chambers (Med Associates, St. Albans, Vt.) that had been scented with 0.3% ammonium hydroxide solution before testing. Chambers were back-lit with fluorescent light with a white noise generator providing 70 dB of background noise. […] Twenty-four hours later, contextual memory was assessed by placing the mice back into the freshly rescented (0.3% Ammonium hydroxide) conditioning chambers in which they were trained, for a 4-min test period in the absence of footshock. Conditioned fear to the context was assessed by measuring the freezing response according to the methods of Fanselow and Bolles (1979). […] An observer, blind to the drug(s) used, scored each mouse every 8 s, for a total of 4 min, for presence or absence of freezing. […]

Row | SMILES | fear conditioned contextual memory, impairment by scopolamine (in words) | reversal of scopolamine induced memory deficits (in words) | reversal of scopolamine induced memory deficits (in words) (listed as XLi 356) | reversal of scopolamine induced memory deficits (in words) (listed as Xli356)
1 | COCc1ncn2c1CN(C)C(=O)c1cc(Cl)ccc1-2 [PWZ-029, methyl(8-chloro-5,6-dihydro-5-methyl-6-oxo-4H-imidazo[1,5-α][1,4]benzodiazepin-3-yl)methyl ether] | attenuation of contextual memory impairment | reverse scopolamine induced memory deficits |  | 
2 | CCc1ccc2c(c1)C(=O)N(C)Cc1c(C(=O)OCCCOC(=O)c3ncn4c3CN(C)C(=O)c3cc(CC)ccc3-4)ncn1-2 [XLi356, 1,3-Bis(8-ethyl-5,6-dihydro-5-methyl-6-oxo-4H-imidazo[1,5a][1,4]benzodiazepine-3-carboxy)propyl diester] | attenuates the impairment of memory |  | potently reverse scoploamine induced memory deficiencies | reverse scopolamine induced memory deficits
